What was measured:
[1] = test system: human PBMCs; experiment: Human PBMC TNF-α response to endotoxin (ELISA); type: cell-based; conditions: 0.1 μg/ml LPS 16 h, read-out: EC50 for the inhibition of the human PBMC TNF-α response to endotoxin, ave. ± S.D.
How it was run: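 PBMCs at 2e6 cells/ml in RPMI 1640 with 10% charcoal-dextran-treated FBS were pre-treated 1 h at 37 °C with compound (4-point 1:5 dilution from 10 μM). Stimulation with 0.1 μg/ml E. coli 0111:B4 LPS for 16 h; TNF-α measured by ELISA (A450) in 25-fold diluted supernatant.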

[2] = test system: AMPKa1 or AMPKa2; experiment: Probe-based (AX9989) kinase profiling in Jurkat lysate: AMPKa1 or AMPKa2; type: binding
How it was run: (§1)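 Jurkat lysate (50 mM HEPES pH 7.5, 150 mM NaCl, 0.1% Triton X-100, 20 mM MnCl2) pre-incubated 15 min with compound at room temperature, then labeled with 5 μM acyl phosphate ATP probe AX9989. Tryptic probe-labeled peptides streptavidin-captured and quantified by LC/MS; percent inhibition from decreased fragment intensity versus untreated.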

[3] = test system: ABL or ARG; experiment: Probe-based (AX9989) kinase profiling in Jurkat lysate: ABL or ARG; type: binding
How it was run: as §1

[4] = molecular target: T1, AurA (Homo sapiens, UniProt O14965); experiment: Probe-based (AX9989) kinase profiling in Jurkat lysate: AurA; type: binding; conditions: read-out: Kinase inhibition % at indicated screening concentration: AurA; for inhibition at 0.1 µM: screening concentration 0.1 μM; for inhibition at 1 µM: screening concentration 1.0 μM
T1 construct: screened for activity against several kinases in Jurkat cells; endogenous in cells; host or cells: Jurkat cell lysate
T1 sequence (O14965 1-403): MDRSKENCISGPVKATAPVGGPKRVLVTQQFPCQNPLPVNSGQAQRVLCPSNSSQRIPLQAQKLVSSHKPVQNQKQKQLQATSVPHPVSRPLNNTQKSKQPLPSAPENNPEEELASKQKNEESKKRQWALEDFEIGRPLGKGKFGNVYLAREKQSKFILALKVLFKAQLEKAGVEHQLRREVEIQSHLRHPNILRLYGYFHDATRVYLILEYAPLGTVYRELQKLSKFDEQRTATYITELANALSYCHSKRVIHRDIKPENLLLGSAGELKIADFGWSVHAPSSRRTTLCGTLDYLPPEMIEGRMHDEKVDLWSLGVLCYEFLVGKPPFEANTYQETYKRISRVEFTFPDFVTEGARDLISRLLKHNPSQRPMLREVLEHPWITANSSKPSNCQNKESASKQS
How it was run: as §1

Structure (SMILES) | EC50 [1] | Kinase inhibition % at indicated screening concentration: AMPKa1 or AMPKa2 ([2]; screening concentration 0.1 μM) | Kinase inhibition % at indicated screening concentration: ABL or ARG ([3]; screening concentration 0.1 μM) | inhibition at 0.1 µM [4] | Kinase inhibition % at indicated screening concentration: AMPKa1 or AMPKa2 ([2]; screening concentration 1.0 μM) | Kinase inhibition % at indicated screening concentration: ABL or ARG ([3]; screening concentration 1.0 μM) | inhibition at 1 µM [4]
COc1cc(C(=O)N2CCC(N(C)C)C2)ccc1Nc1cc2c(cn1)N(C)C(=O)c1ccccc1N2C (centres unmarked) [Compound 70] | 2.1 µM | E (E is ≦35%) | E (E is ≦35%) | ≤ 35% |  |  | 
CCOc1cc(C(=O)N2CCCNCC2)ccc1Nc1cc2c(cn1)N(C)C(=O)c1ccccc1N2C [Compound 71] | 0.78 µM |  |  |  | E (E is ≦35%) | E (E is ≦35%) | ≤ 35%
CCOc1cc(C(=O)N2CCC(F)C2)ccc1Nc1cc2c(cn1)N(C)C(=O)c1occc1N2C (centres unmarked) [Compound 72] | 1.23 ± 0.15 µM | E (E is ≦35%) | E (E is ≦35%) | ≤ 35% |  |  | 
COc1cc(NS(C)(=O)=O)ccc1Nc1cc2c(cn1)N(C)C(=O)c1ccccc1N2C [Compound 73] | 1.84 µM |  |  |  | E (E is ≦35%) | E (E is ≦35%) | ≤ 35%
CN1C(=O)c2ccccc2N(C)c2cc(N[C@H]3CC[C@H](N4CCCC4)CC3)ncc21 [Compound 74] | 4.96 µM |  |  |  | E (E is ≦35%) | E (E is ≦35%) | ≤ 35%
CCOc1cc(C(=O)N2CC[C@H](N(C)C)C2)ccc1Nc1cc2c(cn1)N(C)C(=O)c1ccccc1N2C [Compound 75] | 0.61 µM |  |  |  | E (E is ≦35%) | E (E is ≦35%) | ≤ 35%
CCOc1cc(C(=O)NC2CCOCC2)ccc1Nc1cc2c(cn1)N(C)C(=O)c1ccccc1N2C [Compound 80] | 1.29 µM |  |  |  | E (E is ≦35%) | E (E is ≦35%) | ≤ 35%
CCOc1cc(C(=O)N2CCNC[C@H]2C)ccc1Nc1cc2c(cn1)N(C)C(=O)c1ccccc1N2C [Compound 82] | 1.54 µM | E (E is ≦35%) | E (E is ≦35%) | ≤ 35% |  |  | 
CCOc1cc(C(=O)NCCOC)ccc1Nc1cc2c(cn1)N(C)C(=O)c1ccccc1N2C [Compound 83] | 1.48 µM |  |  |  | E (E is ≦35%) | E (E is ≦35%) | ≤ 35%
CCOc1cc(C(=O)NCCn2ccnc2)ccc1Nc1cc2c(cn1)N(C)C(=O)c1ccccc1N2C [Compound 84] | 1.18 µM |  |  |  | E (E is ≦35%) | E (E is ≦35%) | ≤ 35%
CCOc1cc(C(=O)N(C)CCN(C)C)ccc1Nc1cc2c(cn1)N(C)C(=O)c1ccccc1N2C [Compound 88] | 0.6 µM | E (E is ≦35%) | E (E is ≦35%) | ≤ 35% |  |  | 
CCOc1cc(C(=O)N2CCC(N3CCCC3)CC2)ccc1Nc1cc2c(cn1)N(C)C(=O)c1occc1N2C [Compound 91, 6-((2-Ethoxy-4-(4-(pyrrolidin-1-yl)piperidine-1-carbonyl)phenyl)amino)-4,9-dimethyl-4H-furo[3,2-e]pyrido[3,4-b][1,4]diazepin-10(9H)-one] | 0.71 µM | E (E is ≦35%) | E (E is ≦35%) | ≤ 35% |  |  | 
CCOc1cc(C(=O)N2CCCC(O)C2)ccc1Nc1cc2c(cn1)N(C)C(=O)c1ccccc1N2C (centres unmarked) [Compound 93] | 0.76 µM |  |  |  | E (E is ≦35%) | E (E is ≦35%) | ≤ 35%
CCOc1cc(C(=O)N2CCN(C(C)(C)C)CC2)ccc1Nc1cc2c(cn1)N(C)C(=O)c1ccccc1N2C [Compound 94] | 0.98 µM | E (E is ≦35%) | E (E is ≦35%) | ≤ 35% |  |  | 
CCOc1cc(C(=O)N2CCC[C@H](O)C2)ccc1Nc1cc2c(cn1)N(C)C(=O)c1ccccc1N2C [Compound 96] | 0.57 µM | E (E is ≦35%) | E (E is ≦35%) | ≤ 35% |  |  | 
CCOc1cc(C(=O)N[C@H]2CCCOC2)ccc1Nc1cc2c(cn1)N(C)C(=O)c1ccccc1N2C [Compound 100] | 1.02 µM |  |  |  | E (E is ≦35%) | E (E is ≦35%) | ≤ 35%
CCOc1cc(C(=O)NCCOCCO)ccc1Nc1cc2c(cn1)N(C)C(=O)c1ccccc1N2C [Compound 101] | 0.97 µM |  |  |  | E (E is ≦35%) | E (E is ≦35%) | ≤ 35%
CN1C(=O)c2ccccc2N(C)c2cc(NC3CCOCC3)ncc21 [Compound 102] | 2.52 µM |  |  |  | E (E is ≦35%) | E (E is ≦35%) | ≤ 35%
CCOc1cc(C(=O)NCCN(CC)CC)ccc1Nc1cc2c(cn1)N(C)C(=O)c1ccccc1N2C [Compound 103] | 0.62 ± 0.04 µM | E (E is ≦35%) | E (E is ≦35%) | ≤ 35% |  |  | 
CCOc1cc(C(=O)NCCN2CCCC2)ccc1Nc1cc2c(cn1)N(C)C(=O)c1ccccc1N2C [Compound 105] | 1.1 µM |  |  |  | E (E is ≦35%) | E (E is ≦35%) | ≤ 35%
Cc1cc(CN2CCCC2)ccc1Nc1cc2c(cn1)N(C)C(=O)c1ccccc1N2C [Compound 106, 5,11-dimethyl-3-(2-methyl-4-(pyrrolidin-1-ylmethyl)phenylamino)-5H-benzo[e]pyrido[3,4-b][1,4]diazepin-10(11H)-one] | 2.84 µM |  |  |  | E (E is ≦35%) | E (E is ≦35%) | ≤ 35%
CCOc1cc(C(=O)NCCc2ccncc2)ccc1Nc1cc2c(cn1)N(C)C(=O)c1ccccc1N2C [Compound 107] | 1.31 µM |  |  |  | E (E is ≦35%) | E (E is ≦35%) | ≤ 35%
CCOc1cc(C(=O)N2CCN(CC)CC2)ccc1Nc1cc2c(cn1)N(C)C(=O)c1ccccc1N2C [Compound 108] | 0.7 µM |  |  |  | E (E is ≦35%) | E (E is ≦35%) | ≤ 35%
